Test results from ChEMBL document CHEMBL1649448, “Atorvastatin is a promising partner for antimalarial drugs in treatment of Plasmodium falciparum malaria” (Antimicrob Agents Chemother, 2009).

Columns and labels:
Format in all cases: functional, organism-based
Plasmodium falciparum [1] = assay: Antimalarial activity against Plasmodium falciparum IMT 8425 assessed as incorporation of [3H]hypoxanthine after 48 hrs by scintillation counter
Plasmodium falciparum [2] = assay: Antimalarial activity against Plasmodium falciparum IMT Bres assessed as incorporation of [3H]hypoxanthine after 48 hrs by scintillation counter
Plasmodium falciparum [3] = assay: Antimalarial activity against Plasmodium falciparum 3D7 assessed as incorporation of [3H]hypoxanthine after 48 hrs by scintillation counter
Plasmodium falciparum [4] = assay: Antimalarial activity against Plasmodium falciparum IMT L1 assessed as incorporation of [3H]hypoxanthine after 48 hrs by scintillation counter
Plasmodium falciparum [5] = assay: Antimalarial activity against Plasmodium falciparum IMT 16332 assessed as incorporation of [3H]hypoxanthine after 48 hrs by scintillation counter
Plasmodium falciparum [6] = assay: Antimalarial activity against Plasmodium falciparum IMT K4 assessed as incorporation of [3H]hypoxanthine after 48 hrs by scintillation counter
Plasmodium falciparum [7] = assay: Antimalarial activity against Plasmodium falciparum W2 assessed as incorporation of [3H]hypoxanthine after 48 hrs by scintillation counter
Plasmodium falciparum [8] = assay: Antimalarial activity against Plasmodium falciparum IMT 10336 assessed as incorporation of [3H]hypoxanthine after 48 hrs by scintillation counter
Plasmodium falciparum [9] = assay: Antimalarial activity against Plasmodium falciparum PA assessed as incorporation of [3H]hypoxanthine after 48 hrs by scintillation counter
Plasmodium falciparum [10] = assay: Antimalarial activity against Plasmodium falciparum D6 assessed as incorporation of [3H]hypoxanthine after 48 hrs by scintillation counter
Plasmodium falciparum [11] = assay: Antimalarial activity against Plasmodium falciparum FCR3 assessed as incorporation of [3H]hypoxanthine after 48 hrs by scintillation counter
Plasmodium falciparum [12] = assay: Antimalarial activity against Plasmodium falciparum IMT K14 assessed as incorporation of [3H]hypoxanthine after 48 hrs by scintillation counter
Plasmodium falciparum [13] = assay: Antimalarial activity against Plasmodium falciparum IMT Vol assessed as incorporation of [3H]hypoxanthine after 48 hrs by scintillation counter
Plasmodium falciparum [14] = assay: Antimalarial activity against Plasmodium falciparum HB3 assessed as incorporation of [3H]hypoxanthine after 48 hrs by scintillation counter
Plasmodium falciparum [15] = assay: Antimalarial activity against Plasmodium falciparum IMT A4 assessed as incorporation of [3H]hypoxanthine after 48 hrs by scintillation counter
Plasmodium falciparum [16] = assay: Antimalarial activity against Plasmodium falciparum 106/1 assessed as incorporation of [3H]hypoxanthine after 48 hrs by scintillation counter
Plasmodium falciparum [17] = assay: Antimalarial activity against Plasmodium falciparum IMT K2 assessed as incorporation of [3H]hypoxanthine after 48 hrs by scintillation counter
Plasmodium falciparum [18] = assay: Antimalarial activity against Plasmodium falciparum IMT Guy assessed as incorporation of [3H]hypoxanthine after 48 hrs by scintillation counter
Plasmodium falciparum [19] = assay: Antimalarial activity against Plasmodium falciparum IMT 10500 assessed as incorporation of [3H]hypoxanthine after 48 hrs by scintillation counter
Plasmodium falciparum [20] = assay: Antimalarial activity against Plasmodium falciparum FCM29 assessed as incorporation of [3H]hypoxanthine after 48 hrs by scintillation counter
Plasmodium falciparum [21] = assay: Antimalarial activity against Plasmodium falciparum IMT 9881 assessed as incorporation of [3H]hypoxanthine after 48 hrs by scintillation counter
Plasmodium falciparum [22] = assay: Antimalarial activity against Plasmodium falciparum IMT 31 assessed as incorporation of [3H]hypoxanthine after 48 hrs by scintillation counter

Compound	IC50 (Plasmodium falciparum [1]) [nM]	IC50 (Plasmodium falciparum [2]) [nM]	IC50 (Plasmodium falciparum [3]) [nM]	IC50 (Plasmodium falciparum [4]) [nM]	IC50 (Plasmodium falciparum [5]) [nM]	IC50 (Plasmodium falciparum [6]) [nM]	IC50 (Plasmodium falciparum [7]) [nM]	IC50 (Plasmodium falciparum [8]) [nM]	IC50 (Plasmodium falciparum [9]) [nM]	IC50 (Plasmodium falciparum [10]) [nM]	IC50 (Plasmodium falciparum [11]) [nM]	IC50 (Plasmodium falciparum [12]) [nM]	IC50 (Plasmodium falciparum [13]) [nM]	IC50 (Plasmodium falciparum [14]) [nM]	IC50 (Plasmodium falciparum [15]) [nM]	IC50 (Plasmodium falciparum [16]) [nM]	IC50 (Plasmodium falciparum [17]) [nM]	IC50 (Plasmodium falciparum [18]) [nM]	IC50 (Plasmodium falciparum [19]) [nM]	IC50 (Plasmodium falciparum [20]) [nM]	further results
O=C1C(O)=C([C@H]2CC[C@H](c3ccc(Cl)cc3)CC2)C(=O)c2ccccc21 [ATOVAQUONE]	2.4	2.4	2.4	2.4	2.4	2.4	2.4	2.4	2.4	2.4	2.4	2.4	2.4	2.4	2.4	2.4	2.4	2.4	2.4	2.4	IC50 (Plasmodium falciparum [21]): 2.4 nM; IC50 (Plasmodium falciparum [22]): 2.4 nM
OC(c1cc(C(F)(F)F)nc2c(C(F)(F)F)cccc12)C1CCCCN1 (stereo not given) [MEFLOQUINE]	14	14	14	14	14	14	14	14	14	14	14	14	14	14	14	14	14	14	14	14	IC50 (Plasmodium falciparum [21]): 14 nM; IC50 (Plasmodium falciparum [22]): 14 nM
C=C[C@H]1CN2CC[C@H]1C[C@H]2[C@H](O)c1ccnc2ccc(OC)cc12 [QUININE]	–	–	–	–	–	–	–	–	–	–	–	–	–	–	–	–	48	–	–	–	–
